Earlier results, collected in patent publication US8828453B2, “Herbal-based compositions for alleviating symptoms associated with autism” (priority 2010, dated 2014).

Test system: newborn murine brain

Structure (SMILES): CCCCC/C=C\C/C=C\C/C=C\C/C=C\CCCC(=O)NCCO [anandamide]
- protection against excitotoxic damage: protected the newborn murine brain against excitotoxic damage
